In brackets after ≈: the same amount, converted by molar mass. Numbered stars: 1 amine (or outer) side, 2 acyl side, 3 side chain; on linkers, the order of the positions; unused ones are H or OH. Bridge positions count the residues as written; N and C are the ends. Square brackets hold non-standard residues; d marks the D form. Peptide text beside a SMILES is read from it. * marks the point of attachment. ξ: configuration not given here. ξAsp(3ξ-OH) = NC(C(=O)O)C(O)C(=O)O; X3 = O=C(C(N[*:1])C(O)CCl)[*:2]; X2 = CCCCCCCCCCCC(O)CC(=O)*; Orn = NCCC[CH](N)C(=O)O; hSer = N[CH](CCO)C(=O)O; Dab = NCC[CH](N)C(=O)O; Dhb = C/C=C(\N)C(=O)O
Experiments:
[1] = test system: Candida tropicalis; experiment: Broth microdilution MIC; format: cell-based; settings: Table 1 (MICs); Candida tropicalis, 2 isolates; 48 hr
Method: (§1) Medium: Liquid RPMI 1640 (RPMI) medium with L-glutamine and without sodium bicarbonate (Sigma Chemical Co., R-6504; St. Louis, Mo.) buffered with 0.165M MOPS (34.54 g/liter) was used for in vitro antifungal tests. The medium was adjusted to pH 7.0 with 10M NaOH and filter sterilized.
(§2) Lipodepsipeptide Dilutions: All stock drug solution concentrations were at least 10-fold higher than the highest concentration tested. AmB, ketoconazole, and the test compounds (SR-E, ST-B, and SS-A) were dissolved in sterile distilled water, 0.2N HCl, and 0.001N HCl, respectively. Each stock solution was diluted to 2× the highest concentration of drug tested with RPMI. Two-fold dilutions were made with RPMI medium.
(§3) Preparation of Inoculum Suspensions: On Sabouraud dextose agar (SDA; BBL, Becton and Dickinson and Co., Cockeysville, Md.) all isolates were subcultured at least twice before use to ensure purity and viability. Candida spp. and Saccharomyces cerevisiae were grown for 24 hr at 35° C. Isolates of Cryptococcus neoformans were grown for 48 hr at 35° C. Yeast cells from at least five 1-mm-diameter colonies were suspended in 5 ml of sterile 0.85% saline. The resulting suspension was vortexed for 15 sec. The turbidity of each mixed suspension was measured at 530 nm and adjusted to 1×10^6 to 5×10^6 CFU/ml by the NCCLS spectrophotometric method described by National Committee for Clinical Laboratory Standards. 1992. Reference method for broth dilution antifungal susceptibility testing of yeasts; proposed standard, NCCLS document M27-P (ISBN 1-56238-186-5). NCCLS, Villanova. The final transmission of each yeast suspension ranged from 85-87%.
(§4) Aspergillus fumigatus and Mucor spp. were grown for 1 wk at 35° C. The dermatophytes, Microsporum spp. and Trichophyton spp., were grown for two wk at 30° C. Fungal spores were washed from the plates of all good spore formers (A. fumigatus, Mucor spp., Microsporum canis and Trichophyton spp.) by placing 5 ml of 0.85% saline with 0.2% Tween 80 on the plates and mixing with an inoculating loop. The spore/mycelium suspension was drawn off with a pipette and allowed to settle for at least 5 min. For the poor spore-forming Microsporum audouinii, the procedure was the same except the spore/mycelial suspension was homogenized with a ground glass tissue homogenizer and then allowed to settle for at least 5 min. A small amount of the supernatant was transferred to 5 ml of sterile saline and vortexed. The stock suspensions of all filamentous fungi were measured at 530 nm and adjusted to 85-87% transmission. The concentration (1×10^6 to 5×10^6 CFU/ml) was determined by hemacytometer count or plate count on SDA. All stock suspensions were diluted 1000-fold with RPMI, or 2× the final desired test inocula. The 2× inoculum was diluted 1:1 when the wells were inoculated, and the desired inoculum size was achieved.
(§5) Broth Microdilution Test: Broth microdilution tests were performed using sterile, disposable, multiwell microdilution plates (96 round U-bottom wells) (Falcon 3077; Becton and Dickinson Labware, Lincoln Park, N.J.). The drugs (2× concentrations) were dispensed into the wells of rows number 1 to 10 of the microdilution plates in 100 μl volumes from highest drug concentration to lowest drug concentration. Each well was inoculated with 100 μl of the corresponding 2× concentrated fungal suspension. The wells of row 11 contained the inoculum with drug-free media as a positive growth control and the wells of row 12 contained uninoculated-drug-free medium as a sterility control.
(§6) Incubation and Scoring of MIC: All cultures were incubated without shaking at the temperature used during subculture. Incubation times were 48 hr for Candida spp., S. cerevisiae, A. fumigatus, and Mucor spp; 72 hr for C. neoformans; and 7 days for Microsporum and Trichophyton spp. […]

[2] = test system: Candida rugosa; experiment: Broth microdilution MIC; format: cell-based; settings: Table 1 (MICs); Candida rugosa, 2 isolates; 48 hr
Method: as §1, §2, §3, §4, §5, §6

[3] = test system: Trichophyton spp.; experiment: Broth microdilution MIC; format: cell-based; settings: Table 1 (MICs), 3 isolates, 7 days
Method: as §1, §2, §3, §4, §5, §6

[4] = test system: Saccharomyces cerevisiae; experiment: Broth microdilution MIC; format: cell-based; settings: Table 1 (MICs), 1 strain tested more than once (control ATCC 36375), 48 hr
Method: as §1, §2, §3, §4, §5, §6

[5] = test system: Candida krusei; experiment: Broth microdilution MIC; format: cell-based; settings: Table 1 (MICs), 2 isolates, 48 hr
Method: as §1, §2, §3, §4, §5, §6

[6] = test system: Candida parapsilosis; experiment: Broth microdilution MIC; format: cell-based; settings: Table 1 (MICs), 2 isolates, 48 hr
Method: as §1, §2, §3, §4, §5, §6

[7] = test system: Candida albicans; experiment: Broth microdilution MIC; format: cell-based; settings: for MIC range: Table 1 (MICs), Candida albicans, 20 isolates, RPMI pH 7.0, 48 hr, Ktz read at score 2, others at score 0
Method: as §1, §2, §3, §4, §5, §6

[8] = test system: Candida lusitaniae; experiment: Broth microdilution MIC; format: cell-based; settings: Table 1 (MICs), 2 isolates, 48 hr
Method: as §1, §2, §3, §4, §5, §6

[9] = test system: Microsporum spp.; experiment: Broth microdilution MIC; format: cell-based; settings: Table 1 (MICs), 2 isolates, 7 days
Method: as §1, §2, §3, §4, §5, §6

[10] = test system: Candida kefyr; experiment: Broth microdilution MIC; format: cell-based; settings: Table 1 (MICs), 1 isolate, 48 hr
Method: as §1, §2, §3, §4, §5, §6

[11] = test system: Cryptococcus neoformans; experiment: Broth microdilution MIC; format: cell-based; settings: Table 1 (MICs); Cryptococcus neoformans, 14 isolates; 72 hr
Method: as §1, §2, §3, §4, §5, §6

[12] = test system: Candida tropicalis; experiment: Minimum Fungicidal Concentration (MFC); format: cell-based; settings: Table 2, 2 isolates, 24 hr
Method: as §1, §2, §3, §4, §5, §6

[13] = test system: Candida rugosa; experiment: Minimum Fungicidal Concentration (MFC); format: cell-based; settings: Table 2, 2 isolates, 24 hr
Method: as §1, §2, §3, §4, §5, §6

[14] = test system: Saccharomyces cerevisiae; experiment: Minimum Fungicidal Concentration (MFC); format: cell-based; settings: Table 2, 1 strain tested more than once, 24 hr
Method: as §1, §2, §3, §4, §5, §6

[15] = test system: Candida krusei; experiment: Minimum Fungicidal Concentration (MFC); format: cell-based; settings: Table 2, 2 isolates, 24 hr
Method: as §1, §2, §3, §4, §5, §6

[16] = test system: Candida parapsilosis; experiment: Minimum Fungicidal Concentration (MFC); format: cell-based; settings: Table 2, 2 isolates, 24 hr
Method: as §1, §2, §3, §4, §5, §6

[17] = test system: Candida lusitaniae; experiment: Minimum Fungicidal Concentration (MFC); format: cell-based; settings: Table 2, 2 isolates, 24 hr
Method: as §1, §2, §3, §4, §5, §6

[18] = test system: Candida kefyr; experiment: Minimum Fungicidal Concentration (MFC); format: cell-based; settings: Table 2, 1 isolate, 24 hr
Method: as §1, §2, §3, §4, §5, §6

[19] = test system: fungal isolates; experiment: Fungicidal activity (MFC), fungal isolates overall; format: cell-based, fungi; settings: Table 2 organisms
Method: as §1, §2
Preparation of Inoculum Suspensions: On Sabouraud dextose agar (SDA; BBL, Becton and Dickinson and Co., Cockeysville, Md.) all isolates were subcultured at least twice before use to ensure purity and viability. […] The turbidity of each mixed suspension was measured at 530 nm and adjusted to 1×10^6 to 5×10^6 CFU/ml by the NCCLS spectrophotometric method described by National Committee for Clinical Laboratory Standards. […]
Aspergillus fumigatus and Mucor spp. were grown for 1 wk at 35° C. […] The stock suspensions of all filamentous fungi were measured at 530 nm and adjusted to 85-87% transmission. The concentration (1×10^6 to 5×10^6 CFU/ml) was determined by hemacytometer count or plate count on SDA. […]

[20] = test system: Aspergillus fumigatus; experiment: Broth microdilution MIC; format: cell-based; settings: Table 1 (MICs), 16 isolates, 48 hr
Method: as §1, §2, §3, §4, §5, §6

[21] = test system: Trichophyton spp.; experiment: Minimum Fungicidal Concentration (MFC); format: cell-based; settings: Table 2, 3 isolates, 7 d
Method: as §1, §2, §3, §4, §5, §6

[22] = test system: Aspergillus fumigatus; experiment: Minimum Fungicidal Concentration (MFC); format: cell-based; settings: Table 2, 16 isolates, 48 hr
Method: as §1, §2, §3, §4, §5, §6

[23] = test system: Candida albicans; experiment: Minimum Fungicidal Concentration (MFC); format: cell-based; settings: Table 2, 20 isolates, subculture on drug-free SDA 24 hr
Method: as §1, §2, §3, §4, §5, §6

[24] = test system: Microsporum spp.; experiment: Minimum Fungicidal Concentration (MFC); format: cell-based; settings: Table 2, 2 isolates, 7 d
Method: as §1, §2, §3, §4, §5, §6

[25] = test system: Cryptococcus neoformans; experiment: Minimum Fungicidal Concentration (MFC); format: cell-based; settings: Table 2, 14 isolates, 48 hr
Method: as §1, §2, §3, §4, §5, §6

SMILES	MIC (μg/ml) range [1]	MIC range [2]	MIC range [3]	MFC (μg/ml) range [4]	MIC (μg/ml) range [5]	MIC range [6]	MIC range [7]	MIC range [8]	MIC range [9]	MIC (μg/ml) range [10]	MIC range [11]	MFC (μg/ml) range [12]	MFC (μg/ml) range [14]	MFC (μg/ml) range [15]	MFC (μg/ml) range [16]	MFC (μg/ml) range [17]	MFC (μg/ml) range [18]	further results
CC(=O)N1CCN(c2ccc(OCC3COC(Cn4ccnc4)(c4ccc(Cl)cc4Cl)O3)cc2)CC1 (stereo not shown) [Ktz, ketoconazole, reference compound]	0.08 to 0.6 µg/mL	0.02 µg/mL (≈ 0.0376 µM)	0.4 to 3.1 µg/mL	0.15 µg/mL (≈ 0.282 µM)	0.15 µg/mL (≈ 0.282 µM)	0.02 µg/mL (≈ 0.0376 µM)	0.02 to 10 µg/mL	0.02 µg/mL (≈ 0.0376 µM)	0.8 to 1.6 µg/mL	0.02 µg/mL (≈ 0.0376 µM)	0.04 to 0.6 µg/mL	2.5 to 10 µg/mL	0.6 to 1.25 µg/mL	0.15 µg/mL (≈ 0.282 µM)	0.04 µg/mL (≈ 0.0753 µM)	≤ 0.02 µg/mL	1.25 µg/mL (≈ 2.35 µM)	MIC, one strain of C. albicans ([7]; one strain of C. albicans resistant to ketoconazole): 10 µg/mL; MFC (μg/ml) range [13]: ≤0.02 to 0.08 µg/mL; fungicidal activity [19]: fungicidal activity only against C. krusei
C/C=C1\NC(=O)C(C(C)O)NC(=O)C(CCCN)NC(=O)C(CCO)NC(=O)C(CCN)NC(=O)C(CCN)NC(=O)C(NC(=O)CC(O)CCCCCCCCCCC)COC(=O)C(C(O)CCl)NC(=O)C(C(O)C(=O)O)NC1=O (stereo not shown) [SS-A, syringostatin-A] (X2-S[Dab][Dab][hSer][Orn]T[Dhb][ξAsp(3ξ-OH)][X3]; ester 1-C; configuration not given here)	2.5 to 5 µg/mL	10 to 20 µg/mL	2.5 to 5 µg/mL	2.5 µg/mL (≈ 2.12 µM)	10 µg/mL (≈ 8.48 µM)	2.5 to 5 µg/mL	2.5 to 5 µg/mL	5 µg/mL (≈ 4.24 µM)	2.5 to 5 µg/mL	2.5 µg/mL (≈ 2.12 µM)	2.5 to 10 µg/mL	5 µg/mL (≈ 4.24 µM)	5 µg/mL (≈ 4.24 µM)	10 to 20 µg/mL	2.5 to 10 µg/mL	5 µg/mL (≈ 4.24 µM)	2.5 µg/mL (≈ 2.12 µM)	MIC range [20]: 5 to 40 µg/mL; MFC (μg/ml) range [21]: 5 µg/mL (≈ 4.24 µM); MFC (μg/ml) range [22]: 5 to 40 µg/mL; MFC (μg/ml) range [23]: 2.5 to 10 µg/mL; MFC (μg/ml) range [24]: 5 µg/mL (≈ 4.24 µM); MFC (μg/ml) range [25]: 2.5 to 10 µg/mL

Reference: patent US5830855A, “Lipodepsipeptides as antifungal and fungicidal agents” (priority 1996, dated 1998)
